This is an account of results in patent US8946218B2, “CCR2 receptor antagonists, method for producing the same, and use thereof as medicaments” (Boehringer Ingelheim International GmbH, priority 2010, dated 2015).

The target of this assay is T1, CCR2 (Homo sapiens, UniProt P41597).
T1 construct: Membranes were prepared from THP-1 cells; endogenous in cells; host or cells: THP-1 (human acute monocytic leukaemia cells), membrane preparation
T1 sequence (P41597 whole entry): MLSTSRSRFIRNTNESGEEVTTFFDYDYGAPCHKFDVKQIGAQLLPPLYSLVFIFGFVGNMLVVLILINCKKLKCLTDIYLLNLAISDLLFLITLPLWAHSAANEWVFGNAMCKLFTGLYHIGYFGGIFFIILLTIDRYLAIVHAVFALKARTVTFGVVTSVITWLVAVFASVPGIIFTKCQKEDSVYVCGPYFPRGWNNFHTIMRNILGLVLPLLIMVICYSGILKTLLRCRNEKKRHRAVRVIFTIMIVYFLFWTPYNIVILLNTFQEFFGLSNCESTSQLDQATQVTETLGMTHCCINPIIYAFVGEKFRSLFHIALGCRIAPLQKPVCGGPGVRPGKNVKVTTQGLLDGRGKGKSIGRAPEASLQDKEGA
The experiment in a line: Receptor membrane binding assay: [125I]MCP-1 binding to CCR2 on THP-1 cell membranes (SPA beads). Particulars: THP-1 membranes, [125I]MCP-1, bound radioactivity after 8 h; read-out: hKi. As to the method:
The above exemplary substances have been tested for binding to CCR2 using a binding assay as outlined herein below:
THP-1 cells (human acute monocytic leukaemia cells) were cultured under standardized conditions at 37° C. and 5% CO2 in a humidified incubator. THP-1 cells were cultivated in RPMI 1640 medium (Gibco 21875) containing 1% MEM-NEAA (Gibso 11140) 2 mM L-glutamine, 1.5 g/L sodium bicarbonate, 4.5 g/L glucose, 10 mM HEPES and 1.0 mM sodium pyruvate, 90%; 10% fetal calf serum (FCS Gibco 10500-064).
Membranes were prepared from THP-1 cells. THP-1 cells were centrifuged at 300×g at 4° C. for 10 min. The cell pellet was resuspended in Phosphate Buffer Saline (PBS, including 10 μM Pefabloc and a protease inhibitor mix ‘complete’, Boehringer Mannheim (1 tablet/50 ml)), to a concentration of […]. The membrane preparation was performed by disrupting the cells by nitrogen […] (at 50 bar, for 1 h) in a “Nitrogen Bombe” (Parr Instrument). Cell debris was removed by centrifugation (800×g at 4° C., 1 min). The supernatant was centrifuged at 80000×g, 4° C. for 30 min to sediment the cell membranes. Usually 50 mg of protein (Bradford assay) were yielded from 1×10E9 cells. The membranes were resuspended in 25 mM HEPES, 25 mM MgCl2, 1 mM CaCl2, 10% Glycerine for storage in aliquots at −80° C. in 25 mM HEPES, 25 mM MgCl2, 1 mM CaCl2, 10% Glycerine and stored at −80° C.
Receptor Membrane Binding Assay:
Perkin Elmer NEX 332 Jod 125 MCP-1, Stock: 2200 Ci/mmol solved in 2000 μl assay buffer, stored at −20° C. THP-1 membrane were adjusted with 25 mM HEPES, pH 7.2; 5 mM MgCl2; 0.5 mM CaCl2; 0.2% BSA assay buffer to a concentration of 2.5 μg/15 μl. Amersham Biosciences PVT-WGA Beads (RPNQ0001) were adjusted with assay buffer to a concentration of 0.24 mg/30 μl. For preparation of the membrane-bead-suspension membranes and beads were incubated for 30 min at RT under rotation (60 rpm) with a ratio of 1:2. Test compounds dissolved in 100% DMSO to a concentration of 10 mM and are further diluted with 100% DMSO to 1 mM. All additional compound dilutions were obtained with assay buffer, final 1% DMSO. Compounds, membrane-bead-suspension and [125I]MCP-1 (ca. 25000 cpm/10 μl) were incubated. Bound radioactivity was determined by scintillation counter after 8 h. Determination of affinity of test compounds (dissociation constant hKi) is calculated by iterative fitting of experimental data using the “easy sys” program, which is based on law of mass action (Schittkowski K. (1994), Numerische Mathematik, Vol. 68, 129-142).
As to `COC1COCCC1NC1CCN(C(=O)c2ncnc(Nc3cccc(C(F)(F)F)c3)c2C)CC1` (stereo not shown) [Example 1], the Ki stood at 16 nM.
As for `COC1COCCC1NC1CCN(C(=O)c2ncnc(Nc3cc(C(F)(F)F)cc(C(F)(F)F)c3)c2C)CC1` (stereo not shown) [Example 2], the Ki amounted to 121 nM.
As for `COC1COCCC1NC1CCN(C(=O)c2ncnc(Nc3ccccc3)c2C)CC1` (stereo not shown) [Example 3], the figure is 450 nM; as for `COC1COCCC1NC1CCN(C(=O)c2ncnc(Nc3cccc(C(F)(F)F)n3)c2C)CC1` (stereo not shown) [Example 4], 110 nM; as for `COC1COCCC1NC1CCN(C(=O)c2ncnc(Nc3cccc(C)c3)c2C)CC1` (stereo not shown) [Example 5], 232 nM.
As for `CO[C@H]1COCC[C@H]1NC1CCN(C(=O)c2cc(Nc3cccc(C(F)(F)F)c3)ncn2)CC1` [Example 6], the figure is 280 nM; as for `CO[C@@H]1COCC[C@@H]1NC1CCN(C(=O)c2cc(Nc3cccc(C(F)(F)F)c3)ncn2)CC1` [Example 7], 138 nM.
Consider `CN(C1CCN(C2CCN(C(=O)c3cc(Nc4cccc(C(F)(F)F)c4)ncn3)CC2)CC1)S(C)(=O)=O` [Example 8], for which the Ki was 398 nM.
Then `COC1COCCC1NC1CCN(C(=O)c2ncnc(Nc3ccc(Cl)c(Cl)c3)c2C)CC1` (stereo not shown) [Example 9], with 2 nM; and `COC1COCCC1NC1CCN(C(=O)c2ncnc(N(C)c3cccc(C(F)(F)F)c3)c2C)CC1` (stereo not shown) [Example 10], with 481 nM; and `COC1COCCC1NC1CCN(C(=O)c2ncnc(Nc3cccc(OC(F)(F)F)c3)c2C)CC1` (stereo not shown) [Example 11], with 15 nM.
`COC1COCCC1NC1CCN(C(=O)c2ncnc(Nc3cc(Cl)ccc3C)c2C)CC1` (stereo not shown) [Example 12]: the Ki is 728 nM.
In the case of `COC1COCCC1NC1CCN(C(=O)c2ncnc(Nc3cccc(Cl)c3C)c2C)CC1` (stereo not shown) [Example 13], the Ki came to 2990 nM.
For the compound `COC1COCCC1NC1CCN(C(=O)c2ncnc(Nc3cccc(F)c3)c2C)CC1` (stereo not shown) [Example 14], the Ki is 146 nM.
Then `COC1COCCC1NC1CCN(C(=O)c2ncnc(Nc3ccc(Br)cc3)c2C)CC1` (stereo not shown) [Example 15], with 30 nM; and `COC1COCCC1NC1CCN(C(=O)c2ncnc(Nc3cccc(-c4ccncc4)c3)c2C)CC1` (stereo not shown) [Example 16], with 707 nM.
Then `COC1COCCC1NC1CCN(C(=O)c2ncnc(Nc3ccccc3Cl)c2C)CC1` (stereo not shown) [Example 17], with 5180 nM; and `CO[C@@H]1COCC[C@@H]1NC1CCN(C(=O)c2ncnc(Nc3ccc(Cl)c(Cl)c3)c2C)CC1` [Example 17a], with 1 nM; and `CO[C@H]1COCC[C@H]1NC1CCN(C(=O)c2ncnc(Nc3ccc(Cl)c(Cl)c3)c2C)CC1` [Example 17b], with 5 nM.
Consider `CO[C@@H]1COCC[C@@H]1NC1CCN(C(=O)c2ncnc(Nc3cccc(C(F)(F)F)c3)c2C)CC1` [Example 18], for which the Ki was found to be 6 nM.
As for `COc1c(Nc2cccc(C(F)(F)F)c2)ncnc1C(=O)N1CCC(N[C@@H]2CCOC[C@@H]2OC)CC1` [Example 19], the Ki worked out at 49 nM.
Then `COc1c(Nc2cccc(C(F)(F)F)c2)ncnc1C(=O)N1CCC(N[C@H]2CCOC[C@H]2OC)CC1` [Example 20], with 26 nM.
`COc1c(Nc2cccc(C(F)(F)F)c2)ncnc1C(=O)N1CCC(N2CCC(N(C)S(C)(=O)=O)CC2)CC1` [Example 21]: the Ki amounted to 23 nM.
As for `Cc1c(Nc2ccc3ccccc3c2)ncnc1C(=O)N1CCC(N2CCC(N(C)S(C)(=O)=O)CC2)CC1` [Example 22], the figure is 14 nM; as for `COC1COCCC1NC1CCN(C(=O)c2ncnc(Nc3ccc4ccccc4c3)c2C)CC1` (stereo not shown) [Example 23], 17 nM; as for `Cc1c(Nc2cc3ccccc3c(C)n2)ncnc1C(=O)N1CCC(N2CCC(N(C)S(C)(=O)=O)CC2)CC1` [Example 24], 854 nM.
As for `CO[C@@H]1COCC[C@@H]1NC1CCN(C(=O)c2ccnc(Nc3cccc(C(F)(F)F)c3)c2C)CC1` [Example 25], the figure is 165 nM; as for `CO[C@H]1COCC[C@H]1NC1CCN(C(=O)c2ccnc(Nc3cccc(C(F)(F)F)c3)c2C)CC1` [Example 26], 46 nM.
